Experimental data: the supplement of paper PMC11451515

Assays:
Experiment in all cases: AUC of viability dose-response curve (% viability x log10 dose units); higher = less sensitive
Settings in all cases: 48 h
SEM cells = system: SEM cells
In short: (§1)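 Leukemia cells adapted to each medium (500 or 1000 cells/well, 1536-well plates) were exposed to library compounds in DMSO for 48 h at 37°C at 11 threefold doses, 47 μM to 0.79 nM. Luminescence by CellTiter-Glo One was normalised per plate to DMSO and cell-free wells, then fitted with a four-parameter log-logistic curve on log10 dose. Curves above full viability were scaled and quality-control failures removed before area under the curve was integrated by trapezoidal rule.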

P12-Ichikawa = system: P12-Ichikawa
In short: as §1

NOMO1 = system: NOMO1
In short: as §1

[1] = RPMI 5 mM glucose + 10% dialyzed FBS

Row | Compound | AUC of viability dose-response curve (SEM cells; HPLM + 10% dialyzed FBS) | AUC of viability dose-response curve (SEM cells; RPMI 5 mM glucose + 10% FBS) | AUC of viability dose-response curve (SEM cells; [1]) | AUC of viability dose-response curve (P12-Ichikawa; HPLM + 10% dialyzed FBS) | AUC of viability dose-response curve (P12-Ichikawa; RPMI 5 mM glucose + 10% FBS) | AUC of viability dose-response curve (P12-Ichikawa; [1]) | AUC of viability dose-response curve (NOMO1; HPLM + 10% dialyzed FBS) | AUC of viability dose-response curve (NOMO1; RPMI 5 mM glucose + 10% FBS) | AUC of viability dose-response curve (NOMO1; [1])
1 | O=C(Nc1cccc2c(=O)cc(-c3nnn[nH]3)oc12)c1ccc(OCCCCc2ccccc2)cc1 | 378 | 371 | 392 | 424 | 416 | 389 | 433 | 384 | 404
2 | COc1cc([S+](C)(=O)[O-])ccc1Nc1nc2ccc(-c3ccc(NC(=O)[C@H](C)c4ccc(F)cc4)cc3)cn2n1 | 377 | 369 | 384 | 396 | 386 | 394 | 430 | 439 | 436
3 | Oc1ccc(C2CNCCc3c2cc(O)c(O)c3Cl)cc1 (centres undefined) | 441 | 426 | 438 | 453 | 456 | 427 | 449 | 425 | 454
4 | CN(C)Cc1cccc(N/C(=C2\C(=O)Nc3cc(C(=O)N(C)C)ccc32)c2ccccc2)c1 | 420 | 394 | 411 | 455 | 453 | 458 | 418 | 433 | 444
5 | Cc1nc(C(=O)NCC(=O)O)c(O)c2ccc(Oc3ccccc3)cc12 | 459 | 454 | 470 | 454 | 455 | 466 | 462 | 442 | 466
6 | Cc1n[nH]c2ccc(-c3cncc(OC[C@@H](N)Cc4c[nH]c5ccccc45)c3)cc12 | 245 | 286 | 265 | 309 | 294 | 290 | 270 | 310 | 280
7 | CCOC(=O)c1c(/C(C#N)=C\N)c2ccc(Cl)c(Cl)c2n1C | 412 | 427 | 408 | 432 | 412 | 429 | 442 | 395 | 407
8 | CCCCC(F)(F)[C@@]1(O)CC[C@H]2[C@@H](CC(=O)[C@@H]2CCCCCCC(=O)O)O1 | 455 | 459 | 456 | 451 | 444 | 456 | 446 | 447 | 411
9 | CC1(C)CCC(=C(\C1)C2=CC=C(Cl)C=C2)/CN3CCN(CC3)C4=CC(=C(C=C4)C(=O)N[S+]([O-])(=O)C5=CC=C(NCC6CCOCC6)C(=C5)[N+]([O-])=O)OC7=CN=C8[NH]C=CC8=C7 | 186 | 198 | 175 | 436 | 436 | 449 | 355 | 347 | 290
10 | COc1ccccc1OCC(O)CN1CCN(CC(=O)Nc2c(C)cccc2C)CC1 (centres undefined) | 433 | 471 | 469 | 467 | 469 | 468 | 460 | 453 | 465
11 | O=C(O)C(=O)Nc1cccc(-c2nnn[nH]2)c1 | 422 | 451 | 462 | 455 | 477 | 470 | 463 | 457 | 452
12 | CC(C)C[C@@H](C(=O)N[C@H](C(=O)OC1CCCC1)c1ccccc1)[C@H](O)C(=O)NO | 454 | 423 | 399 | 446 | 424 | 441 | 451 | 449 | 446
13 | N[S+](=O)([O-])c1cc2c(cc1Cl)NCN[S+]2(=O)[O-] | 450 | 442 | 412 | 466 | 468 | 474 | 468 | 477 | 470
14 | CC/C(=C(\c1ccccc1)c1ccc(OCCN(C)C)cc1)c1ccccc1 | 434 | 425 | 435 | 472 | 461 | 465 | 457 | 458 | 450
15 | O=C(c1ccc(C(=O)N2CCC(N3CCCC3)CC2)c(Nc2ccccc2)c1)N1CCC(N2CCCC2)CC1 | 443 | 461 | 462 | 468 | 466 | 465 | 462 | 452 | 458
16 | COC1=CC(=C2C(=O)N(COC/3=C/C(=O)N4\C=C/C=C(OCCN5CCCCC5)\C4=N3)[S+]([O-])(=O)C2=C1)C(C)C | 476 | 452 | 436 | 477 | 460 | 470 | 460 | 463 | 471
17 | Cc1nc(N)sc1-c1ccnc(Nc2ccc(N3CCOCC3)cc2)n1 | 382 | 368 | 359 | 389 | 392 | 399 | 447 | 447 | 432
18 | CC[P](CC)(CC)=[Au][S][C@@H]1O[C@H](COC(C)=O)[C@@H](OC(C)=O)[C@H](OC(C)=O)[C@H]1OC(C)=O | 327 | 336 | 315 | 375 | 339 | 331 | 357 | 344 | 354
19 | N[C@@H](Cc1ccc(N(CCCl)CCCl)cc1)C(=O)O | 377 | 355 | 362 | 410 | 374 | 387 | 400 | 422 | 415
20 | Oc1ccc(-c2nc(-c3ccncc3)c(-c3ccc(F)cc3)[nH]2)cc1 | 289 | 251 | 247 | 388 | 427 | 410 | 366 | 412 | 420
21 | COC(=O)Nc1nc2cc(Sc3ccccc3)ccc2[nH]1 | 377 | 365 | 371 | 377 | 376 | 382 | 377 | 391 | 387
22 | OC[C@H]1O[C@H](C[C@@H]1O)N2\C=C(\I)C(=O)NC2=O | 452 | 454 | 386 | 435 | 462 | 472 | 456 | 470 | 446
23 | CN(C)[C@H]\1[C@@H]2[C@@H](O)[C@H]3\C(=C(O)/[C@]2(O)C(=O)\C(=C1O)C(N)=O)C(=O)C4=C(C=CC=C4O)[C@@]3(C)O | 459 | 463 | 476 | 454 | 456 | 421 | 448 | 459 | 449
24 | N#C[C@@H]1C[C@@H]2C[C@@H]2N1C(=O)[C@@H](N)C12CC3CC(CC(O)(C3)C1)C2 | 465 | 426 | 455 | 462 | 433 | 451 | 400 | 466 | 450
25 | CNC(=O)c1ccccc1Sc1ccc2c(/C=C/c3ccccn3)n[nH]c2c1 | 407 | 389 | 395 | 390 | 386 | 409 | 425 | 430 | 418
26 | COC1=CC=CC(=C1/C2=N/CC3=C(N=C(NC4=CC(=C(C=C4)C(O)=O)OC)N=C3)C5=CC=C(Cl)C=C25)F | 241 | 221 | 216 | 210 | 217 | 230 | 312 | 291 | 297
